In patent US7649012B2, “Compounds, pharmaceutical compositions containing same, and methods of use for same” (FASgen, Inc., priority 2002, dated 2010):
Values after ≈ are worked out from the molar mass of the structure shown. Read-outs that look alike come from different tables or passages of the source.

Experiments:
[1] = molecular target: T1, purified human FAS (Homo sapiens, UniProt P49327); assay: Measurement of FAS enzymatic activity (NADPH oxidation), IC50; format: biochemical
T1 construct: Human FAS was purified from cultured ZR-75-1 human breast cancer cells; endogenous in cells; host or cells: ZR-75-1 human breast cancer cells (ATCC); endogenous enzyme purified by PEG precipitation and Mono Q anion exchange
T1 sequence (P49327 whole entry): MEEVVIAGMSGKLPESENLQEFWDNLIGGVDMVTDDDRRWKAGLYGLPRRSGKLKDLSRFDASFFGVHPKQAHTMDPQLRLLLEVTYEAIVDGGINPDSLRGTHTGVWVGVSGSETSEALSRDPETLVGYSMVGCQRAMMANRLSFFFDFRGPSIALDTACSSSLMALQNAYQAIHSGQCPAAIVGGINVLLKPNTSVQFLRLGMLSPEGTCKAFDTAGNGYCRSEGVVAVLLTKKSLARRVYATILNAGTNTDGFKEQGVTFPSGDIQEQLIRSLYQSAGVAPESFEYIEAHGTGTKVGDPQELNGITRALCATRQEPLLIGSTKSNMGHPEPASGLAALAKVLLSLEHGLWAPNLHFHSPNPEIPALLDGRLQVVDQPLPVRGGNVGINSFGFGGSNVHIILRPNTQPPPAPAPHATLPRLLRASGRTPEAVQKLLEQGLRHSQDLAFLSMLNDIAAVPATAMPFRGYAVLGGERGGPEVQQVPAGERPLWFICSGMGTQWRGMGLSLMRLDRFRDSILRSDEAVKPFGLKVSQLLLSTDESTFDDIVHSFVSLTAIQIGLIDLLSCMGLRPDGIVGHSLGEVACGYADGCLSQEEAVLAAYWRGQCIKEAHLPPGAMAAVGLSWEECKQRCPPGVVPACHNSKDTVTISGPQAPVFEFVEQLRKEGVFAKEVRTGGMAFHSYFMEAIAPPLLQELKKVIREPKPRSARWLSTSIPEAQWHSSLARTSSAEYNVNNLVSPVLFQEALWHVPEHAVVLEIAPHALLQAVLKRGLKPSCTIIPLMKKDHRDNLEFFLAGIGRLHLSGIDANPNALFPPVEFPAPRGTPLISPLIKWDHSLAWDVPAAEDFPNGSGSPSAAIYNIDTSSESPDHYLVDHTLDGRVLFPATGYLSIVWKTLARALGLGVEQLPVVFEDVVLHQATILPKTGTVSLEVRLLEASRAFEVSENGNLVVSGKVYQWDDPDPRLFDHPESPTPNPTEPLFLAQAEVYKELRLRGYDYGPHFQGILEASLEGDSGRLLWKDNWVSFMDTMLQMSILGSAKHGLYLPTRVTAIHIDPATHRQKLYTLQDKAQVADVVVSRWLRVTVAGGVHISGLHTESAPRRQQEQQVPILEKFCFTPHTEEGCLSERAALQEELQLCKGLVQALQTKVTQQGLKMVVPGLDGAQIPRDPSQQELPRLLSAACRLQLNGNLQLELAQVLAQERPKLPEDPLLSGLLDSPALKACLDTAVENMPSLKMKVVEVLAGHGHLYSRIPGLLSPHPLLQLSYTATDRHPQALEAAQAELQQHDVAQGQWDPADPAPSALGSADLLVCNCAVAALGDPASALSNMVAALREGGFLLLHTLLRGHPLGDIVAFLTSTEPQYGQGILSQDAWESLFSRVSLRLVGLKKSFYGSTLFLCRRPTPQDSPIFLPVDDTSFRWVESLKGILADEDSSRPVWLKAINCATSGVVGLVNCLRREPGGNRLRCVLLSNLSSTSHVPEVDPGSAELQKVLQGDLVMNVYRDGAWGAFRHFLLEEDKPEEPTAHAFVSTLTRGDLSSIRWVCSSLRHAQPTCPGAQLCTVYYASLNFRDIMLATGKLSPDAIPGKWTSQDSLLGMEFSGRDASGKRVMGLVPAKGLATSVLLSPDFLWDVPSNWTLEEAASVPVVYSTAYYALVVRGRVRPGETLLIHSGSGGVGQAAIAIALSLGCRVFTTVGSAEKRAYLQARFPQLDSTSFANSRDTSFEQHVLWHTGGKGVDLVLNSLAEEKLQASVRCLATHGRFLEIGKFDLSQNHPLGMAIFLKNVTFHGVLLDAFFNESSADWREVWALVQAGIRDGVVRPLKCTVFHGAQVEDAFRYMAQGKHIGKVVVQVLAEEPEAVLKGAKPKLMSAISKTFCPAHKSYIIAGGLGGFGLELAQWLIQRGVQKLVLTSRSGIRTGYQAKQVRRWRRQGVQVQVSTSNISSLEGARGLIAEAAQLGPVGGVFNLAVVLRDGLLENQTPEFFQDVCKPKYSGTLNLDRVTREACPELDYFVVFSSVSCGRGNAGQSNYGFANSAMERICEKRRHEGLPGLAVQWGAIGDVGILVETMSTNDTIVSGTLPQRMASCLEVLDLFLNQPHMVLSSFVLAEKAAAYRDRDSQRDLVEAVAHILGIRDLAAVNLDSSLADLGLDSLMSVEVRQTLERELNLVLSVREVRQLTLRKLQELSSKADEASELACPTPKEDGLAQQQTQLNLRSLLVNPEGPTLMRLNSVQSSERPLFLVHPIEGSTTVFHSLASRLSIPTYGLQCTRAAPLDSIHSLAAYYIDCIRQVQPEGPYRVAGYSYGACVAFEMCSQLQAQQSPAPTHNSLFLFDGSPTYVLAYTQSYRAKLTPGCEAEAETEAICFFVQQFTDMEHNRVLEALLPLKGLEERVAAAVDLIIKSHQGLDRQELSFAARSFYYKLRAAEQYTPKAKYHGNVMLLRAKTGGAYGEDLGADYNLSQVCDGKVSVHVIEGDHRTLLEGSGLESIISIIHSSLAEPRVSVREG
Experimental: Human FAS was purified from cultured ZR-75-1 human breast cancer cells obtained from the American Type Culture Collection. The procedure, adapted from Linn et al., 1981, and Kuhajda et al., 1994, utilizes hypotonic lysis, successive polyethyleneglycol (PEG) precipitations, and anion exchange chromatography. […] The lysate is centrifuged in JA-20 rotor (Beckman) at 20,000 rpm for 30 minutes at 4° C. and the supernatant is brought to 42 ml with lysis buffer. A solution of 50% PEG 8000 in lysis buffer is added slowly to the supernatant to a final concentration of 7.5%. After rocking for 60 minutes at 4° C., the solution is centrifuged in JA-20 rotor (Beckman) at 15,000 rpm for 30 minutes at 4° C. […] After the rocking and centrifugation is repeated as above, the pellet is resuspended overnight at 4° C. in 10 ml of Buffer A (20 mM K2HPO4, pH 7.4). After 0.45 μM filtration, the protein solution is applied to a Mono Q 5/5 anion exchange column (Pharmacia). The column is washed for 15 minutes with buffer A at 1 ml/minute, and bound material is eluted with a linear 60-ml gradient over 60 minutes to 1 M KCl. […] FAS protein concentration is determined using the Coomassie Plus Protein Assay Reagent (Pierce) according to manufacturer's specifications using BSA as a standard. This procedure results in substantially pure preparations of FAS (>95%) as judged by Coomassie-stained gels. FAS activity is measured by monitoring the malonyl-CoA dependent oxidation of NADPH spectrophotometrically at OD340 in 96-well plates (Dils et al and […] et al, 1975). […] For each experiment, cerulenin (Sigma) is run as a positive control along with DMSO controls, inhibitors, and blanks (no FAS enzyme) all in duplicate. The assay is performed on a Molecular Devices SpectraMax Plus Spectrophotometer. The plate containing FAS, buffers, inhibitors, and controls are placed in the spectrophotometer heated to 37° C. Using the kinetic protocol, the wells are blanked on duplicate wells containing 100 μl of 100 mM K2HPO4, pH 6.5 and the plate is read at OD340 at 10 sec intervals for 5 minutes to measure any malonyl-CoA independent oxidation of NADPH. The plate is removed from the spectrophotometer and malonyl-CoA (67.4 μM, final concentration per well) and […] (61.8 μM, final concentration per well) are added to each well except to the blanks. The plate is read again as above with the kinetic protocol to measure the malonyl-CoA dependent NADPH oxidation. The difference between the Δ OD340 for the malonyl-CoA dependent and non-malonyl-CoA dependent NADPH oxidation is the specific FAS activity. Because of the purity of the FAS preparation, non-malonyl-CoA dependent NADPH oxidation is negligible. […] Graphs of Δ OD340 versus time are plotted by the SOFTmax PRO software (Molecular Devices) for each compound concentration.

[2] = system: MCF-7 human breast cancer cells; assay: [14C]acetate incorporation into total lipids; format: cell-based; conditions: for IC50: Homo sapiens, MCF7, [14C]acetate incorporation into lipids
Experimental: This assay measures the incorporation of [^14C]acetate into total lipids and is a measure of fatty acid synthesis pathway activity in vitro. It is utilized to measure inhibition of fatty acid synthesis in vitro.
MCF-7 human breast cancer cells cultured as above, are plated at 5×10^4 cells per well in 24-well plates. […] DMSO is added to triplicate wells for a vehicle control. C75 is run at 5 and 10 μg/ml in triplicate as positive controls. After 4 hours of incubation, 0.25 μCi of [^14C]acetate (10 μl volume) is added to each well.
After 2 hours of additional incubation, medium is aspirated from the wells and 800 μl of chloroform:methanol (2:1) and 700 μl of 4 mM MgCl2 is added to each well. Contents of each well are transferred to 1.5 Eppendorf tubes, and spun at full-speed for 2 minutes in a high-speed Eppendorf Microcentrifuge 5415D. After removal of the aqueous (upper) layer, an additional 700 μl of chloroform:methanol (2:1) and 500 μl of 4 mM MgCl2 are added to each tube and then centrifuged for 1 minutes as above. The aqueous layer is removed with a Pasteur pipette and discarded. An additional 400 μl of chloroform:methanol (2:1) and 200 μl of 4 mM MgCl2 are added to each tube, then centrifuged and aqueous layer is discarded. The lower (organic) phase is transferred into a scintillation vial and dried at 40° C. under N2 gas. Once dried, 3 ml of scintillant (APB #NBC5104) is added and vials are counted for ^14C. The Beckman Scintillation counter calculates the average cpm values for triplicates.
The IC50 for the compounds is defined as the concentration of drug leading to a 50% reduction in [^14C]acetate incorporation into lipids compared to controls. […] The average cpm values are computed by the Beckman scintillation counter (Model LS6500) for each compound concentration. Computation of linear regression, best-fit line, r^2, and 95% confidence intervals are calculated using Prism Version 3.0 (Graph Pad Software).

[3] = system: MCF-7 human breast cancer cells; assay: Crystal violet cell growth assay; format: cell-based; conditions: MCF7, MCF-7, 72 hours, read-out: Cr. Violet(IC50)
Experimental: The crystal violet assay measure cell growth but not cytotoxicity. This assay employs crystal violet staining of fixed cells in 96-well plates with subsequent solubilization and measurement of OD490 on a spectrophotometer. The OD490 corresponds to cell growth per unit time measured. Cells are treated with the compounds of interest or vehicle controls and IC50 for each compound is computed.
To measure the cytotoxicity of specific compounds against cancer cells, 5×10^4 MCF-7 human breast cancer cells, obtained from the American Type Culture Collection are plated per well in 24 well plates in DMEM medium with 10% fetal bovine serum, penicillin, and streptomycin. Following overnight culture at 37° C. and 5% CO2, the compounds to be tested, dissolved in DMSO, are added to the wells in 1 μl volume at the following concentrations: 50, 40, 30, 20, and 10 μg/ml in triplicate. Additional concentrations are tested if required. 1 μl of DMSO is added to triplicate wells are the vehicle control. C75 is run at 10, and 5 μg/ml in triplicate as positive controls.
After 72 hours of incubation, cells are stained with 0.5 ml of Crystal Violet stain (0.5% in 25% methanol) in each well. After 10 minutes, wells are rinsed, air dried, and then solubilized with 0.5 ml 10% sodium dodecylsulfate with shaking for 2 hours.

[4] = Weight loss screen in Balb/C mice; format: in vivo; conditions: Mus musculus, read-out: Weight Loss; for change in vivo at 60 mg/kg: ip, 60 mg/kg intraperitoneally
Experimental: Balb/C mice (Jackson Labs) are utilized for the initial weight loss screening. Animals are housed in temperature and 12 hour day/night cycle rooms and fed mouse chow and water ad lib. Three mice are utilized for each compound tested with vehicle controls in triplicate per experiment. For the experiments, mice are housed separately for each compound tested three mice to a cage. […] Mice are observed and weighed daily; average weights and standard errors are computed with Excel (Microsoft). The experiment continues until treated animals reach their pretreatment weights. […]

SMILES | IC50 [1] [µM] | IC50 [2] [µg/mL] | IC50 [3] [µg/mL] | FAS(IC50) [1] | further results
C/C=C/C(C)=C/C1(C)SC(=O)C=C1O (stereo not shown) | 339 | 17.3 (≈ 82.3 µM) | > 50 | – | change in vivo at 60 mg/kg ([4]; 24 h, day1): 4.1%
CC/C=C/C=C/C1(C)SC(=O)C=C1O (stereo not shown) | 238 | 16.9 (≈ 80.4 µM) | > 50 | – | change in vivo at 60 mg/kg ([4]; 120 h, day5): 3.2%
C=CCC1=C(OC)C(C)(CCCCCCCC)SC1=O (stereo not shown) | – | 23.1 ± 17.4 (≈ 77.9 µM) | 22.3 (≈ 75.2 µM) | Neg | change in vivo at 60 mg/kg ([4]; 24 h, day1): 7.9%
CCCCCCCCC1(C)SC(=O)C(C(C)O)=C1O (stereo not shown) | 11.5 | 17.6 (≈ 61.4 µM) | 19.5 (≈ 68.1 µM) | – | –
CCCCCCCCC1(C)SC(=O)C=C1OCC(=O)NNC(=O)c1ccco1 (stereo not shown) | – | 16.4 (≈ 40.1 µM) | 26.3 (≈ 64.4 µM) | Neg | change in vivo at 60 mg/kg ([4]; 96 h, day4): 6.3%
CCCCCCCCC1(C)SC(=O)C(C(C)O)=C1OC (stereo not shown) | 9.32 | 21.7 (≈ 72.2 µM) | 23.2 (≈ 77.2 µM) | – | change in vivo at 30 mg/kg ([4]; 48 h): 0.2%
C=CCC1(C)C(=O)S[C@](C)(CCCCCCCC)C1=O (mixture of isomers) | – | 14.9 | > 50 | Neg | –
CCCCCCCCC1(C)SC(=O)C=C1OCc1ccccc1 (stereo not shown) | – | – | 9.5 (≈ 28.6 µM) | Neg | 14C(IC50) ([2]; [14C]acetate incorporation into lipids): Neg(stim); change in vivo at 60 mg/kg ([4]; 72 h, day3): 5.2%

Now from value to compound, other results behind:

IC50 [1] [µM] | IC50 [2] [µg/mL] | IC50 [3] [µg/mL] | FAS(IC50) [1] | SMILES | further results
5.99 | 10.7 (≈ 35.6 µM) | 41.4 ± 14.1 (≈ 138 µM) | – | CCCCCCCC[C@@]1(C)SC(=O)C=C1OC(=O)OC (racemic) | change in vivo at 60 mg/kg ([4]; 24 h, day1): 7.65%
246 | 23.1 ± 13.2 (≈ 70.5 µM) | 22.5 (≈ 68.7 µM) | – | CCCCCCCC[C@@]1(C)SC(=O)C=C1OC(=O)NC(C)C (racemic) | –
– | 25.7 (≈ 72.7 µM) | 9 (≈ 25.5 µM) | Neg | C=CCN(C)C(=O)COC1=CC(=O)SC1(C)CCCCCCCC (stereo not shown) | change in vivo at 60 mg/kg ([4]; 72 h, day3): 1.5%
– | 14.5 ± 6.9 (≈ 46.1 µM) | 31.4 ± 5.7 (≈ 99.9 µM) | – | CCCCCCCCC1(C)SC(=O)C=C1OC(=O)OCC (stereo not shown) | IC50 ([1]; unit inferred): 9.54 µM; change in vivo at 30 mg/kg ([4]; 96 h, 30 mg/kg, day4): 1.3%; change in vivo at 60 mg/kg ([4]; 48 h, day2): 6.9%
– | 14.2 ± 0.2 (≈ 47.3 µM) | 17 (≈ 56.6 µM) | Neg | CCCCCC[C@@]1(C)SC(=O)C=C1OCC(=O)OCC (racemic) | –
– | 6.7 (≈ 17.1 µM) | 12.6 ± 3.7 (≈ 32.1 µM) | Neg | CCCCCC[C@@]1(C)SC(=O)C=C1OCC(=O)NCCCBr (racemic) | –
